# In ChEMBL document CHEMBL1201862, “PubChem BioAssay data set” (2004):
# Calls of active or inactive are those of the source.
# Columns and labels:
# [1] = molecular target: Photoreceptor-specific nuclear receptor (Homo sapiens, UniProt Q9Y5X4); type: functional, cell-based;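 note: CHO-S cells with Gal4-NCOR and VP16-NR2E3 two-hybrid luciferase reporter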
# [2] = molecular target: T1, Probable nicotinate-nucleotide adenylyltransferase (Staphylococcus aureus (strain N315), UniProt P65502); type: functional, Staphylococcus aureus subsp. aureus N315; conditions: read-out: IC50_Mean;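 for IC50 Mean: confirmatory dose-response retesting of NadD inhibitor hits first found in an ultra-high-throughput screen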
# T1 sequence (P65502 whole entry): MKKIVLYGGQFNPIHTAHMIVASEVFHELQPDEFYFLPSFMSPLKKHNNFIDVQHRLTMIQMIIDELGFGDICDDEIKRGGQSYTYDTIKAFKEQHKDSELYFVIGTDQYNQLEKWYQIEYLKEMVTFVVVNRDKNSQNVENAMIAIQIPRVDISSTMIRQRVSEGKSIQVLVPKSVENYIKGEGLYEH
# [3] = molecular target: T1, Probable nicotinate-nucleotide adenylyltransferase; type: functional, Staphylococcus aureus subsp. aureus N315
# [4] = molecular target: T2, Carboxy-terminal domain RNA polymerase II polypeptide A small phosphatase 1 (Homo sapiens, UniProt Q9GZU7); assay: CTDSP1 inhibitors, concentration-response, biochemical, absorbance readout, ultra-high-throughput screen actives (AID 540297); type: functional
# T2 sequence (Q9GZU7 whole entry): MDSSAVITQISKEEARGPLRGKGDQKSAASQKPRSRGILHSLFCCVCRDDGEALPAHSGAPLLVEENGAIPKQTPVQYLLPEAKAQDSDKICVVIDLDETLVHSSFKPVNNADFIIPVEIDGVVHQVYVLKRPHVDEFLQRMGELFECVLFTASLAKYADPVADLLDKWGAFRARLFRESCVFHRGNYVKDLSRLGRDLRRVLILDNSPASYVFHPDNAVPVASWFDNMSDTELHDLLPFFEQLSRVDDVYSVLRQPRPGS
# [5] = molecular target: T3, Low molecular weight phosphotyrosine protein phosphatase (Homo sapiens, UniProt P24666); type: functional; conditions: read-out: IC50_Mean
# T3 sequence (P24666 whole entry): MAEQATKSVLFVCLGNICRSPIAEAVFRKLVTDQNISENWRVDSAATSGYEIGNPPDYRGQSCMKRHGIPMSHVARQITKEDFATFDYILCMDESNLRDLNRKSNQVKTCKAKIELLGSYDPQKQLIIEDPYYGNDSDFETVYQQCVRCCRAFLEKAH
# [6] = molecular target: Cytochrome P450 3A4 (Homo sapiens, UniProt P08684);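 note: CYP3A4 tested as one member of a cytochrome P450 panel screen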
# Sequence of Cytochrome P450 3A4 (P08684 whole entry): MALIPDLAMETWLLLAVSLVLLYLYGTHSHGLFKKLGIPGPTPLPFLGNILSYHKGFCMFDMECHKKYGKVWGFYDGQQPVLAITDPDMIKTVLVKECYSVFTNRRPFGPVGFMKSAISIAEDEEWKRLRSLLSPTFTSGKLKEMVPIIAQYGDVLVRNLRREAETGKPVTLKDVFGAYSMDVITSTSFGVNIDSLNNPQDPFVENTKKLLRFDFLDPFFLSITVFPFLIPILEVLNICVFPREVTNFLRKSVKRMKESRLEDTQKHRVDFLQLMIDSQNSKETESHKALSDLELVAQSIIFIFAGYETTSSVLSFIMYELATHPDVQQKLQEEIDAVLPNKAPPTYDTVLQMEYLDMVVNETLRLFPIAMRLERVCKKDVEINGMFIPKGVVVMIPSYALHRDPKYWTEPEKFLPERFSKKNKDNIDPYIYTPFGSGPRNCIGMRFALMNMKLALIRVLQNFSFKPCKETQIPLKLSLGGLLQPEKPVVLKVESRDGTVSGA
# [7] = molecular target: T3, Low molecular weight phosphotyrosine protein phosphatase; type: functional; conditions: read-out: IC50_Mean; remark: listed apart in the source
# [8] = molecular target: Cytochrome P450 2C19 (Homo sapiens, UniProt P33261); assay: Cytochrome panel assay with activity outcomes. Panel member name: p450-cyp2c19 Compounds with AC50 equal or less than 10 uM are considered active; type: functional; conditions: read-out: AC50
# Sequence of Cytochrome P450 2C19 (P33261 whole entry, the tested form may be a part): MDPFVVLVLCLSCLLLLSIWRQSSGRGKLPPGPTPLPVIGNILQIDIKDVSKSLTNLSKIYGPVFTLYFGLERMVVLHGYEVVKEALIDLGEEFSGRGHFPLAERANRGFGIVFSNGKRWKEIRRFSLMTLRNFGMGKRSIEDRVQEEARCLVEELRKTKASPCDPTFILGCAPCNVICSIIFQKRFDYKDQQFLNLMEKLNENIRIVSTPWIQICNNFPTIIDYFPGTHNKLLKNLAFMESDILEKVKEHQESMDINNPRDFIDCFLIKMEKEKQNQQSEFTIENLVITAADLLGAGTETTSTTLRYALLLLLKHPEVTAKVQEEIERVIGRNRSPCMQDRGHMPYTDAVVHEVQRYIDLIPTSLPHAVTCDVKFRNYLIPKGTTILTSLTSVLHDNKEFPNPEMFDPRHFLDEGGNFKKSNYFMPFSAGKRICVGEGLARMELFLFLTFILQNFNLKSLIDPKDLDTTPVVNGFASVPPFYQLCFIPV
# [9] = molecular target: Arf-GAP with SH3 domain, ANK repeat and PH domain-containing protein 1 (Homo sapiens, UniProt Q9ULH1); type: functional;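 note: biochemical fluorescence polarization dose–response screen measuring inhibition of ASAP1; ASAP1 GAP domain stimulating GTP hydrolysis by truncated human ARF1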
# Sequence of Arf-GAP with SH3 domain, ANK repeat and PH domain-containing protein 1 (Q9ULH1 whole entry, the tested form may be a part): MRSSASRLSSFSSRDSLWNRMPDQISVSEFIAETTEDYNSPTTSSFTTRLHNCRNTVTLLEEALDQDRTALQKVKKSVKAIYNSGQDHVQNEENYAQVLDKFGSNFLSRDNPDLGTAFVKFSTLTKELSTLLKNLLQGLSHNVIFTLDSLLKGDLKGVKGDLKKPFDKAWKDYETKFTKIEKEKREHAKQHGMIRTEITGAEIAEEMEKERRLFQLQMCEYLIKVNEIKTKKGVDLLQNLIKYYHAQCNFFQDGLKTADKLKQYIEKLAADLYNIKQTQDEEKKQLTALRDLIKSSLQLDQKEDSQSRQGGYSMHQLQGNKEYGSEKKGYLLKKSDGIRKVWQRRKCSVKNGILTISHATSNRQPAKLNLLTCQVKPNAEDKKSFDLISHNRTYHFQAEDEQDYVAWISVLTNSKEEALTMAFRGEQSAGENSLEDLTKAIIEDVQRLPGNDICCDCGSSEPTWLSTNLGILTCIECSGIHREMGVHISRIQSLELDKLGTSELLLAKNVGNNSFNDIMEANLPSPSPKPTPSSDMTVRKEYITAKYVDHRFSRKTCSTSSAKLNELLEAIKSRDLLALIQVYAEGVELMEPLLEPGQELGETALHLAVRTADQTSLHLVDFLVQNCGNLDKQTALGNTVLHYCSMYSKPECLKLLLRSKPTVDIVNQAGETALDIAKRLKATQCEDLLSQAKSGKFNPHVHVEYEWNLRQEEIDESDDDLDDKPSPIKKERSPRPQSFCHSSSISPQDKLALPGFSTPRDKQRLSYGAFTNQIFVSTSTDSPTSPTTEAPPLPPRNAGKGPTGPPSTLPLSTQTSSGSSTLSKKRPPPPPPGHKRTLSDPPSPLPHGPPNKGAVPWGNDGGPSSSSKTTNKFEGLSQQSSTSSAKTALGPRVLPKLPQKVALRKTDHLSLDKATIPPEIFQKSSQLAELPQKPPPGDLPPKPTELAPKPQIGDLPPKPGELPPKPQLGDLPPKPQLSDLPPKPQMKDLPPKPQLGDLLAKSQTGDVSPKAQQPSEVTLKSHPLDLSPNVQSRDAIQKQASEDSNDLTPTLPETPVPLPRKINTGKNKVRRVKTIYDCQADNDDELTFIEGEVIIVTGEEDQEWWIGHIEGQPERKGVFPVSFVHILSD
# [10] = molecular target: T4, Adenosylmethionine-8-amino-7-oxononanoate aminotransferase (Mycobacterium tuberculosis, UniProt P9WQ81); assay: Mycobacterium tuberculosis BioA enzyme inhibitor Measured in Biochemical System Using Plate Reader - 2163-02_Inhibitor_Dose_CherryPick_Activity.; type: functional, Mycobacterium tuberculosis UT205
# T4 sequence (P9WQ81 whole entry): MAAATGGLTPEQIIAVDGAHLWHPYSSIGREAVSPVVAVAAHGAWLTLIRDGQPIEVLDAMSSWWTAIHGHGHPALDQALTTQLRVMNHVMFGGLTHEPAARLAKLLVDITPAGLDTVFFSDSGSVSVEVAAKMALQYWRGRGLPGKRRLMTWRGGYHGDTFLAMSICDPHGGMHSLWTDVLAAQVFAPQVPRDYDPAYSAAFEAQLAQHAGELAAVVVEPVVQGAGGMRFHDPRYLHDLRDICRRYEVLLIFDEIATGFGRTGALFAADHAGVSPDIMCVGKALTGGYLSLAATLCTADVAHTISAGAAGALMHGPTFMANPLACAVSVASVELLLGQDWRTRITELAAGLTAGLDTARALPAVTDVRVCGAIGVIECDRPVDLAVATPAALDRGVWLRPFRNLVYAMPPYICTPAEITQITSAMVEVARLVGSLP
# [11] = HEK293 cell viability loss – plate reader, cherry-pick, cytotoxicity control, dose response (AID 651899); type: functional, cell-based
# [12] = molecular target: T5, Corticotropin-releasing factor receptor 2/Corticotropin-releasing factor-binding protein (Homo sapiens, UniProt P24387+Q13324); assay: activators of CRF receptor 2 with binding protein – uHTS hits, confirmation (AID 602473); type: functional; conditions: read-out: EC50_Mean
# T5 sequence (Q13324 whole entry): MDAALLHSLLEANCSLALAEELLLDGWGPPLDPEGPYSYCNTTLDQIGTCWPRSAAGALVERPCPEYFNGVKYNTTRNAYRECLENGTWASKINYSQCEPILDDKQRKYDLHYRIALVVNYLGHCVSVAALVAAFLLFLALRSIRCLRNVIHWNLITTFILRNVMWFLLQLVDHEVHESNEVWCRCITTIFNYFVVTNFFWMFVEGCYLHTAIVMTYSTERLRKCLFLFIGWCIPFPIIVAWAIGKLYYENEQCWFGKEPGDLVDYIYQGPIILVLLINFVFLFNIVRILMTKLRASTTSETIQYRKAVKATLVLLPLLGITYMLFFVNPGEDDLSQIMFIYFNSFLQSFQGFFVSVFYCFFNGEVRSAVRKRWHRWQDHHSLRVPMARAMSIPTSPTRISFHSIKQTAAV
# T5 sequence (P24387 whole entry): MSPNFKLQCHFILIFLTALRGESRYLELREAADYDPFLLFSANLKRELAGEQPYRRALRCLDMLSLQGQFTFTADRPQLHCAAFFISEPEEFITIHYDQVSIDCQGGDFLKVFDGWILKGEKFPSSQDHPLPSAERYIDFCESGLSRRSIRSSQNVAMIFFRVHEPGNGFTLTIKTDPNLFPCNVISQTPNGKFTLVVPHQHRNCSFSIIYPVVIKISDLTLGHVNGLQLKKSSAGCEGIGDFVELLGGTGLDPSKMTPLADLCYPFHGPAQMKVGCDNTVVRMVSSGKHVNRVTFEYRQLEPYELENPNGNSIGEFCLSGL
# [13] = molecular target: T5, Corticotropin-releasing factor receptor 2/Corticotropin-releasing factor-binding protein; assay: Dose Response confirmation of uHTS hits for small molecule antagonists of the CRF-binding protein and CRF-R2 receptor complex.; type: functional; conditions: read-out: IC50_Mean
# [14] = blockers of CRF-binding protein–CRF-R2 complex – cell-based, uHTS hits, 384-well, dose response (AID 651639); type: functional, Homo sapiens; conditions: read-out: IC50_Mean
# [15] = molecular target: T6, Bcl-2-like protein 10 (Homo sapiens, UniProt Q9HD36); assay: Bcl-B/TR3 peptide binding disruption – biochemical, fluorescence polarization, FITC-TR3 peptide, selectivity assay for Bfl-1 inhibitor project, primary screen (AID 748);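 note: fluorescence polarization from a fluorescein-labelled TR3 peptide binding purified Bcl-B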
# T6 sequence (Q9HD36 whole entry): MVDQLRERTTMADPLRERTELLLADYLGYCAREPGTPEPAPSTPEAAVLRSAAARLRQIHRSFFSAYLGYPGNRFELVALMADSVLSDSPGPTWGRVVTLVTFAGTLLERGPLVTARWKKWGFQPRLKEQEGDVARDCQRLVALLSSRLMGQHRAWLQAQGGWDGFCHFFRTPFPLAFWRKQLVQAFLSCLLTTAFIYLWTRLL
# [16] = molecular target: Tyrosine-protein phosphatase non-receptor type 5 (Homo sapiens, UniProt P54829); assay: PTPN5 enzyme inhibition – biochemical, fluorescence intensity, uHTS hits, confirmation (AID 602372); type: functional; conditions: read-out: IC50_Mean
# Sequence of Tyrosine-protein phosphatase non-receptor type 5 (P54829 whole entry): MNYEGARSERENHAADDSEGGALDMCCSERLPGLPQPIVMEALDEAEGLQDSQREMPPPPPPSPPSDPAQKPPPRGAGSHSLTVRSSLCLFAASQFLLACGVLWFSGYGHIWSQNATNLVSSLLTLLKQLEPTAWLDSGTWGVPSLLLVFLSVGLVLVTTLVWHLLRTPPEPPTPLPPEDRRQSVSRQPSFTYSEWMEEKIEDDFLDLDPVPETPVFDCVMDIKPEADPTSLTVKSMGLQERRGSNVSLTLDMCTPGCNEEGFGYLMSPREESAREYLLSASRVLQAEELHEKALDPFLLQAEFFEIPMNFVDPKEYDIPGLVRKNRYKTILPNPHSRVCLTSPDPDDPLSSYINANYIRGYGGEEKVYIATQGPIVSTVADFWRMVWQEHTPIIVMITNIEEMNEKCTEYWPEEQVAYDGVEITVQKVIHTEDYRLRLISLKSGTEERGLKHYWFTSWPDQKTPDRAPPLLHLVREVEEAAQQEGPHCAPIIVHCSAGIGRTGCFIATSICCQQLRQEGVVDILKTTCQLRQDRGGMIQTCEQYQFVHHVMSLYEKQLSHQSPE
# [17] = molecular target: T7, Estrogen receptor beta (Homo sapiens, UniProt Q92731); assay: blockers of SRC-3 recruitment to ERβ – biochemical, ELISA, streptavidin-HRP readout, orthogonal assay, confirmation (AID 1060)
# T7 sequence (Q92731 whole entry): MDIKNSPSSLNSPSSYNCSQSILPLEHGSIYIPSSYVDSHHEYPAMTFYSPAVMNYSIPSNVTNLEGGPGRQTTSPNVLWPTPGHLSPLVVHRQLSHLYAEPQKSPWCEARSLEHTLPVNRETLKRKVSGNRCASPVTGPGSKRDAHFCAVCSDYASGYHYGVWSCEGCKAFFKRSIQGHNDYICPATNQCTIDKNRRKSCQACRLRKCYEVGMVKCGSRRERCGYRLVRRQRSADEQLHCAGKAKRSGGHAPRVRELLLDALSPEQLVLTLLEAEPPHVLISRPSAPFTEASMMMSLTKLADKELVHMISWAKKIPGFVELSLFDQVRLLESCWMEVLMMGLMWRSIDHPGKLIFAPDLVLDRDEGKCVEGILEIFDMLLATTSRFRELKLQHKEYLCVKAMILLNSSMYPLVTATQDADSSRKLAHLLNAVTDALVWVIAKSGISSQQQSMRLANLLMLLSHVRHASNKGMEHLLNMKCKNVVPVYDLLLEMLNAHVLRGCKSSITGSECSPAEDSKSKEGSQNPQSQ
# [18] = molecular target: Dual specificity protein phosphatase 3 (Homo sapiens, UniProt P51452); assay: VHR phosphatase inhibition, dose response, selectivity assay for STEP inhibitor project, biochemical (AID 602374); type: functional; conditions: read-out: IC50_Mean
# Sequence of Dual specificity protein phosphatase 3 (P51452 whole entry): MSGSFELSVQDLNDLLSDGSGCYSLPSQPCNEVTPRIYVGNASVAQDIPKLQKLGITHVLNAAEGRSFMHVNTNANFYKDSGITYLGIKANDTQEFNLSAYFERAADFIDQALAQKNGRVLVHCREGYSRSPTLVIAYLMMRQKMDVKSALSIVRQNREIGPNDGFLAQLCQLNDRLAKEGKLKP
# [19] = molecular target: Estrogen receptor (Homo sapiens, UniProt P03372);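 note: potency for inhibiting coactivator peptide recruitment to the receptor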
# [20] = molecular target: T8, Tyrosine-protein phosphatase non-receptor type 22 (Homo sapiens, UniProt Q9Y2R2); assay: lymphoid phosphatase LYP inhibitors – biochemical, selectivity assay for STEP inhibitor project, dose response (AID 624241); type: functional
# T8 sequence (Q9Y2R2 whole entry): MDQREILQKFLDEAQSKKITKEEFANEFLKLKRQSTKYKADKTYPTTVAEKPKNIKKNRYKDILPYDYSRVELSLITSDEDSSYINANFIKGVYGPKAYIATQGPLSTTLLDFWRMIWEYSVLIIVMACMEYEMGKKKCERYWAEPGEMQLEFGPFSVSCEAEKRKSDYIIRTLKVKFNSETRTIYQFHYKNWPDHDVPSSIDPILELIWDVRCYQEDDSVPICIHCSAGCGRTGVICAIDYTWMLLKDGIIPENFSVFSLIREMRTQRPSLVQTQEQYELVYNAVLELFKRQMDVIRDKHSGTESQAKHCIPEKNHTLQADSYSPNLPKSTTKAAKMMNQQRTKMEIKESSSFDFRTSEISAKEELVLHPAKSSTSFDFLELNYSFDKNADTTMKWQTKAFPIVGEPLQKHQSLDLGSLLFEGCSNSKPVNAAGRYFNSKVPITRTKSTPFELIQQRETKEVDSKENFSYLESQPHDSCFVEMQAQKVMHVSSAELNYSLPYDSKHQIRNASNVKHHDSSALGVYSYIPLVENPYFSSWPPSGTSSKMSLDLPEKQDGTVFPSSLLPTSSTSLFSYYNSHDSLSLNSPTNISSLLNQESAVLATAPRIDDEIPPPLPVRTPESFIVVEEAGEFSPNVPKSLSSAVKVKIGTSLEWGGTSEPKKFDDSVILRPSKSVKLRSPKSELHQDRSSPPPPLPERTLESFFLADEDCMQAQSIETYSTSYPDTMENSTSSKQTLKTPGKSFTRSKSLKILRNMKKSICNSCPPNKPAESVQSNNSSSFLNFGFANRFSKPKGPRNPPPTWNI
# [21] = molecular target: Tyrosine-protein phosphatase non-receptor type 11 (Homo sapiens, UniProt Q06124); assay: PTPN11 enzyme inhibitors – biochemical, selectivity assay for STEP inhibitor project, dose response (AID 602367); type: functional; conditions: read-out: IC50_Mean
# Sequence of Tyrosine-protein phosphatase non-receptor type 11 (Q06124 whole entry): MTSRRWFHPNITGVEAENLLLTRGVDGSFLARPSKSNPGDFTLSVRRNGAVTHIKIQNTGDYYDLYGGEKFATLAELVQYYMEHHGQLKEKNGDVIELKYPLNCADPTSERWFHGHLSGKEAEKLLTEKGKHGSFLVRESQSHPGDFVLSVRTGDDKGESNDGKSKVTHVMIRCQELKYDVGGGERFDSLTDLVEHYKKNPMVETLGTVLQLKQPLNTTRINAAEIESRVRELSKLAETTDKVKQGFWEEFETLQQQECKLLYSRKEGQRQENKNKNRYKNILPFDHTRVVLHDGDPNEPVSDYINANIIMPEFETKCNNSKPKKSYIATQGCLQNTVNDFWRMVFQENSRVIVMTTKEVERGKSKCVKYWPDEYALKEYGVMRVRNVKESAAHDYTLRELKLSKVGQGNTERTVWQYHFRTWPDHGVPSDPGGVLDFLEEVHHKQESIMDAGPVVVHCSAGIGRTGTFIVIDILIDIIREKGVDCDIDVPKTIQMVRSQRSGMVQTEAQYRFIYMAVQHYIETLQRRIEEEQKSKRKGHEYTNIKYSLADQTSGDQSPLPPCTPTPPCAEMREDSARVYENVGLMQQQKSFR
# [22] = molecular target: T7, Estrogen receptor beta
# Sequence of Photoreceptor-specific nuclear receptor (Q9Y5X4 whole entry, the tested form may be a part): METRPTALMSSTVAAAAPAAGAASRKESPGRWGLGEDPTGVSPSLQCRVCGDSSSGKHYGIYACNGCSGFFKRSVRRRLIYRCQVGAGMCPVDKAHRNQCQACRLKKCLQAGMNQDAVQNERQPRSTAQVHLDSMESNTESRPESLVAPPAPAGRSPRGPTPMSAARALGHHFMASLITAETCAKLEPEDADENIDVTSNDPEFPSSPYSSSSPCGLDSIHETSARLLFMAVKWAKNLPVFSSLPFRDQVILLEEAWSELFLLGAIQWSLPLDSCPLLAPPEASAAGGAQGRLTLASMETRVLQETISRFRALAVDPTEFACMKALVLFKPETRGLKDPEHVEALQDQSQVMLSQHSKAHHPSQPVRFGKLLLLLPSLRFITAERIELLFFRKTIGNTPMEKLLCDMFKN
compound,measurement,setting,value
Cc1cnc(NC(=O)Cc2ccc(Br)cc2)s1,IC50,[1],1.15 µM (active)
Cc1ccc(C(=O)NNC(=O)c2cc3cc4ccccc4nc3s2)cc1,IC50,[2],27.3 µM (active)
same,IC50,[3],12.1 µM (active)
same,IC50,[4],4.33 µM (active)
same,IC50,[5],12.8 µM (active)
same,AC50,[6],4.47 µM (inconclusive)
same,IC50,[7],52.9 µM (inactive)
same,AC50,[8],39.8 µM (inconclusive)
CC1=CC2=NC(=O)/C(=C\c3ccc(-c4ccc(Cl)cc4)o3)C(=N)N2O1,IC50,[9],3.41 µM (active)
COc1ccc(-c2[nH]nc3c2CN(C(=O)c2ccc(OC)c(OC)c2)CC3)cc1,AC50,[10],0.912 µM (active)
same,AC50,[11],25.6 µM (active)
COc1ccccc1-c1c(C)nn2c(N3CCN(c4ccccc4OC)CC3)cc(C)nc12,EC50,[12],> 53 µM (inactive)
same,IC50,[13],12.9 µM (active)
same,IC50,[14],> 20 µM (inactive)
Cc1ccc(S(=O)(=O)Cc2ccc(C(=O)O)o2)cc1,IC50,[15],16 µM (active)
same,IC50,[16],23.4 µM (inactive)
same,IC50,[4],3.66 µM (active)
same,IC50,[17],< 0.023 µM (not active)
same,IC50,[18],1.03 µM (active)
same,IC50,[19],18.1 µM (active)
same,IC50,[20],21.8 µM (inactive)
same,IC50,[21],0.776 µM (active)
same,IC50,[22],5.22 µM (active)
